Experimental data as given in patent publication US6046169A, “Inhibitors of factor XA” (COR Therapeutics, Inc., priority 1995, dated 2000).
Square brackets hold non-standard residues; d marks the D form. Peptide text beside a SMILES is read from it. * marks the point of attachment. Boc = CC(C)(C)OC(=O)*

Assays:
in vivo = conditions: rabbit, iv
cuticle bleeding time = test: Cuticle Bleeding Time model in rabbits; assay type: in vivo, rabbit; conditions: 1500 μg/kg+14.85 μg/kg/min
Protocol: In an ancillary study, a Cuticle Bleeding Time model was used to evaluate the effect of test compounds on bleeding time (BT) measurements in rabbits. The standardized protocol involved anesthesia and catheterization of rabbits as previously described in this Example 43. To measure BT, a toe nail was cut 5 mm from the base of the cuticle with a canine nail trimming device. Time until cessation of bleeding was recorded by wicking the blood on to BT blotting paper in 30 second intervals. Test compound was administered as a bolus followed by infusion regimen. Two BT measurements were obtained prior to administration of test compound and three BT measurements accomplished serially after initiation of steady state infusion of test compound. BT measurements were allowed to continue for up to 30 minutes at which time it was stopped with application of silver nitrate. Blood samples were obtained just prior to all BT measurements and processed for measurement of hematological and coagulation parameters.

[1] = test system: coagulation parameters (aPTT, PT, FIB)
rabbit venous thrombosis [2] = conditions: in vivo
[3] = rabbit, in vivo, iv, 2 mg/kg
rabbit venous thrombosis [4] = test: Rabbit deep vein thrombosis model; conditions: bolus + infusion, doses 200 + 1.98 to 1500 + 14.85 μg/kg + μg/kg/min

Structure (SMILES) | half-life (in vivo) [h] | Vd (in vivo; 2 mg/kg) [L/kg] | changes in hematological parameters from pre to post administration (cuticle bleeding time; cuticle BT experiments) | increase of cuticle BT from pre-administration baseline (cuticle bleeding time; rabbits, n=4, ±1.26) [fold] | changes in hematological parameters as compared to saline controls ([1]; rabbit, in vivo, iv, 2 mg/kg) | effects on hematological parameters as compared to saline controls (rabbit venous thrombosis [2]) | peak plasma concentration by HPLC [3] [µg/mL] | FIB prolongation ([1]; rabbits, I.V. bolus 2.0 mg/kg) [fold] | PT prolongation ([1]; rabbits, I.V. bolus 2.0 mg/kg) [fold] | aPTT prolongation as compared to pretreatment values ([1]; rabbits, I.V. bolus 2.0 mg/kg) [fold] | anticoagulative effect ([1]; rabbits, I.V. bolus 2.0 mg/kg) | antithrombotic efficacy in the rabbit venous thrombosis model (rabbit venous thrombosis [4])
CC(C)(C)OC(=O)N[C@H](CCCN=C(N)N)C(=O)NCC(=O)N[C@H](C=O)CCCN=C(N)N [Boc--D-Arg--Gly--Arg--H, Boc-D-Arg-Gly-Arg-H] (Boc-[dR]-Gly-Arg-aldehyde) | 1.18 | 0.118 | no significant changes | 2.14 | no significant changes | no significant effects | 3.78 | – | – | – | – | –
CC(C)(C)OC(=O)N[C@H](CCCNC(=N)N)C(=O)NCC(=O)N[C@H](C=O)CCCNC(=N)N [Boc--D-Arg--Gly--Arg--H, Boc-D-Arg-Gly-Arg-H] (Boc-[dR]-Gly-Arg-aldehyde) | – | – | – | – | – | – | – | 1.07 | 1.15 | 2.45 | plasma concentration-dependent anticoagulative effect | antithrombotic efficacy at the higher doses evaluated
